Experimental data taken from US6469033B1, “Use of 1-hydroxy-2-pyridones for the treatment of skin diseases” (Aventis Pharma Deutschland GmbH, priority 1996, dated 2002).
Read-outs that look alike come from different tables or passages of the source.

Tests used:
Staphylococcus aureus = test: Agar dilution MIC, aerobic bacteria (Mueller-Hinton agar); type: cell-based; details: 20 strains, read after 24 hours at 37° C.
Description: (§1) Determination of the antibacterial activity of 1-hydroxy-4-methyl-6-cyclohexyl-2(1H)pyridone to skin-pathogenic gram-positive and gram-negative aerobic bacteria.
(§2) The minimal inhibitory concentration (MIC) was determined in an agar dilution test in Mueller-Hinton agar. The active compound was first dissolved in dimethyl sulfoxide at 10% strength and then diluted to twice the amount in each case in equal stages with agar so that in the end effect concentrations between 128 μg/ml and 1 μg/ml were obtained. Overnight cultures of the bacterial strains to be tested were diluted with liquid medium and employed as inoculum. The bacterial suspensions (1×10^5 cfu/ml) were applied to the surface of the active compound-containing agar plates. With the exception of the methicillin-resistant strains of Staphylococcus aureus (MRSA) and Staphylococcus epidermidis (MRSE), the MIC values were read off after 24 hours at 37° C.(MRSA and MRSE: 48 hours at 30° C.).
(§3) The lowest concentration at which growth was no longer to be observed was designated as the MIC.
(§4) Using known methods, the antibiotic-resistant bacteria investigated can be isolated from patients or from hospitals in which antibiotic resistance has been found. The other bacterial species mentioned can be isolated easily by a person skilled in the art on account of their species and generic name or ordered from a strain collection.

[1] = test system: S. epidermidis, ofloxacin-resistant, OFX^r; test: as above; type: cell-based; details: Staphylococcus epidermidis; 4 strains; 24 hours at 37° C.
Description: as §1, §2, §3, §4

Klebsiella pneumoniae = test: as above; type: cell-based; details: 2 strains, number in brackets = strains with that MIC, 24 hours at 37° C.
Description: as §1, §2, §3, §4

Streptococcus pyogenes = test: as above; type: cell-based; details: 20 strains, 24 hours at 37° C.
Description: as §1, §2, §3, §4

Enterobacter cloacae = test: as above; type: cell-based; details: 1 strain, 24 hours at 37° C.
Description: as §1, §2, §3, §4

[2] = test system: Strept. faecium, vancomycin-resistant, VAN^r; test: as above; type: cell-based; details: Enterococcus faecium; 1 strain; 24 hours at 37° C.
Description: as §1, §2, §3, §4

[3] = test system: S. aureus, methicillin-resistant MRSA; test: as above; type: cell-based; details: Staphylococcus aureus, 19 strains, read after 48 hours at 30° C.
Description: as §1, §2, §3, §4

Strept. agalactiae = test: as above; type: cell-based; details: Streptococcus agalactiae; 9 strains; 24 hours at 37° C.
Description: as §1, §2, §3, §4

Escherichia coli = test: as above; type: cell-based; details: 3 strains, 24 hours at 37° C.
Description: as §1, §2, §3, §4

Strept. faecalis = test: as above; type: cell-based; details: 3 strains, number in brackets = strains with that MIC, 24 hours at 37° C.
Description: as §1, §2, §3, §4

Pseudomonas aeruginosa = test: as above; type: cell-based; details: 5 strains, 24 hours at 37° C.
Description: as §1, §2, §3, §4

[4] = test system: Staphylococcus epidermidis; test: as above; type: cell-based; details: 20 strains, 24 hours at 37° C.
Description: as §1, §2, §3, §4

Strept. durans = test: as above; type: cell-based; details: Enterococcus durans, 24 h, 10 strains; number in brackets = strains with that MIC; 24 hours at 37° C.
Description: as §1, §2, §3, §4

Proteus vulgaris = test: as above; type: cell-based; details: 3 strains, number in brackets = strains with that MIC, 24 hours at 37° C.
Description: as §1, §2, §3, §4

Enterobacter aerogenes = test: as above; type: cell-based; details: Klebsiella aerogenes; 1 strain; 24 hours at 37° C.
Description: as §1, §2, §3, §4

Strept. faecium = test: as above; type: cell-based; details: Enterococcus faecium; 1 strain; 24 hours at 37° C.
Description: as §1, §2, §3, §4

Strept. equisimilis = test: as above; type: cell-based; details: Streptococcus dysgalactiae; 1 strain; 24 hours at 37° C.
Description: as §1, §2, §3, §4

[5] = test system: S. epidermidis, methicillin-resistant, MRSE; test: as above; type: cell-based; details: Staphylococcus epidermidis, 2 strains, 48 hours at 30° C.
Description: as §1, §2, §3, §4

Propionibacterium acnes = test: Agar dilution MIC, anaerobic bacteria (Wilkins-Chalgren agar); type: cell-based
Description: as §3
In vitro activity of 1-hydroxy-4-methyl-6-cyclohexyl-2(1H)pyridone against anaerobic bacteria (the testing was carried out in an agar dilution test using Wilkins-Chalgren agar (Oxoid).

[6] = test system: S. aureus, ofloxacin-resistant, OFX^r; test: Agar dilution MIC, aerobic bacteria (Mueller-Hinton agar); type: cell-based, Staphylococcus aureus; details: 16 strains, number in brackets = strains with that MIC, 24 hours at 37° C.
Description: as §1, §2, §3, §4

enterococci = details: isolates from various centers; cited from earlier work
Propionibacteria = details: acne patients pretreated with antibiotics; cited from earlier work
[7] = test system: Staphylococcus epidermidis; details: acne patients pretreated with antibiotics; cited from earlier work

Cc1cc(C2CCCCC2)n(O)c(=O)c1 [1-hydroxy-4-methyl-6-cyclohexyl-2(1H)pyridone]
32.0 µg/mL: MIC (Propionibacterium acnes; Strain 6922) | MIC (Propionibacterium acnes; Strain 15549)
64 µg/mL: MIC (Staphylococcus aureus) | MIC [1] | MIC (Klebsiella pneumoniae; Klebsiella pneumoniae, 24 h, read-out: MIC) | MIC (Streptococcus pyogenes) | MIC [3] | MIC (Escherichia coli) | MIC (Strept. faecalis; Enterococcus faecalis, 24 h, read-out: MIC) | MIC (Strept. durans) | MIC (Proteus vulgaris) | MIC [5] | MIC ([6]; Staphylococcus aureus, 24 h, read-out: MIC)
128 µg/mL: MIC (Klebsiella pneumoniae) | MIC (Enterobacter cloacae) | MIC (Strept. agalactiae) | MIC (Strept. faecalis) | MIC (Pseudomonas aeruginosa) | MIC [4] | MIC (Enterobacter aerogenes) | MIC (Strept. faecium) | MIC (Strept. equisimilis) | MIC [6]
32 µg/mL: MIC [2] | MIC (Proteus vulgaris; Proteus vulgaris, 24 h, read-out: MIC) | MIC (Propionibacterium acnes; Cutibacterium acnes, DSM20458, Strain DSM 20458, read-out: MIC) | MIC (Propionibacterium acnes; Cutibacterium acnes, Strain 6919, read-out: MIC)

gentamycin
up to 50%: resistances, share of isolates (enterococci)

CC[C@H]1OC(=O)[C@H](C)[C@@H](O[C@H]2C[C@@](C)(OC)[C@@H](O)[C@H](C)O2)[C@H](C)[C@@H](O[C@@H]2O[C@H](C)C[C@H](N(C)C)[C@H]2O)[C@](C)(O)C[C@@H](C)C(=O)[C@H](C)[C@@H](O)[C@]1(C)O [erythromycin]
90%: resistances found, share of the cases [7]
36%: resistances found, share of the cases (Propionibacteria)
